In US12630600B2 (MEDIMMUNE LIMITED, priority 2022, dated 2026):
Starred links: 1 amine or outer side, 2 acyl side, 3 side chain; linkers in the order of their positions; H or OH if unused. Non-standard residues stand in square brackets, D forms with d. Residues, ends and D or L forms follow the SMILES beside them. Groups on a side chain read outwards from the residue. *: point of attachment. C20 diacid = O=C(O)CCCCCCCCCCCCCCCCCCC(=O)*; C18 diacid = O=C(O)CCCCCCCCCCCCCCCCC(=O)*; γGlu = O=C(O)[C@H](CCC(=O)[*:2])N[*:1]; αMeF = C[C@](N)(Cc1ccccc1)C(=O)O; AEEA = NCCOCCOCC(=O)O; Aib = CC(C)(N)C(=O)O

Target: T1, human GLP-1 receptor (hGLP-1R) (Homo sapiens, UniProt P43220)
T1 construct: expressed in transfected cells; host or cells: CHO
T1 sequence (P43220 24-463): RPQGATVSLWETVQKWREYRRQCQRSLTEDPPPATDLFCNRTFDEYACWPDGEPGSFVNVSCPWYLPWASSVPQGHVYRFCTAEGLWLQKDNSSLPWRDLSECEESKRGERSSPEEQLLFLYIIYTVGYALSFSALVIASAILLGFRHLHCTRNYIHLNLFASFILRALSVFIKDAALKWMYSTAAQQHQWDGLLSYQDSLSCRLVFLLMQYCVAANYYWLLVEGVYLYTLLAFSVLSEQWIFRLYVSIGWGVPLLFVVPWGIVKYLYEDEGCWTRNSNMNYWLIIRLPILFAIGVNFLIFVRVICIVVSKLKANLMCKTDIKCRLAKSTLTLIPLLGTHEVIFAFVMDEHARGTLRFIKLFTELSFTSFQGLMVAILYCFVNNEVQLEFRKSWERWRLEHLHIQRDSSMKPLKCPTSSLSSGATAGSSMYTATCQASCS
Assay: cAMP production (HTRF) in CHO cells expressing human GLP-1 receptor
Type: cell-based
Details: % GLP-1R activity relative to GLP-1 / % GlucR activity relative to glucagon
Method: Cells were re-suspended in assay buffer at a batch-dependent optimized concentration (typically hGLP-1R cells at 1×10^5 cells/mL, hGCGR cells at 2×10^5 cells/mL).
Cells were added to the assay plate using a multidrop dispenser and incubated at room temperature for 30 minutes before measuring the cAMP level using a cAMP dynamic 2 homogeneous time resolved Fluorescence (HTRF) kit (Cisbio Bioassays #62AM4PEJ) following the two-step protocol as per manufacturer's recommendations. In brief, anti-cAMP cryptate (donor fluorophore) and cAMP-d2 (acceptor fluorophore) were made up separately by diluting each 1 in 20 in conjugate and lysis buffer provided in the kit. Anti-cAMP cryptate was added to all wells of the assay plate, followed by cAMP-d2 added to all wells except non-specific binding (NSB) wells (to which conjugate and lysis buffer was added).
Data was transformed to % Delta F as described in the manufacturer's guidelines and analyzed by 4-parameter logistic fit to determine EC50 values.

Compound	% Relative Potency Ratio (Table 8)	also measured
CC[C@H](C)[C@H](NC(=O)[C@H](CO)NC(=O)[C@H](CCCCNC(=O)COCCOCCNC(=O)COCCOCCNC(=O)CC[C@H](NC(=O)CCCCCCCCCCCCCCCCC(=O)O)C(=O)O)NC(=O)[C@@H](NC(=O)[C@](C)(Cc1ccccc1)NC(=O)[C@H](CC(=O)O)NC(=O)[C@H](CCC(N)=O)NC(=O)[C@H](C)NC(=O)[C@H](C)NC(=O)[C@H](CCCNC(=N)N)NC(=O)[C@H](CO)NC(=O)[C@H](CC(=O)O)NC(=O)[C@H](CC(C)C)NC(=O)[C@](C)(Cc1ccccc1)NC(=O)[C@H](CCCCN)NC(=O)[C@H](CO)NC(=O)[C@@H](NC(=O)[C@H](CC(=O)O)NC(=O)[C@H](CO)NC(=O)[C@@H](NC(=O)[C@](C)(Cc1ccccc1)NC(=O)[C@H](CO)NC(=O)CNC(=O)[C@H](Cc1c[nH]cn1)NC(=O)C(C)(C)NC(=O)[C@@H](N)Cc1c[nH]cn1)[C@@H](C)O)C(C)C)C(C)C)C(=O)N[C@@H](C)C(=O)N[C@@H](CC(N)=O)C(=O)N[C@H](C(N)=O)[C@@H](C)O [Peptide 379] (H-H[Aib]HGS[αMeF]TSDVSK[αMeF]LDSRAAQD[αMeF]VK([AEEA-AEEA-γGlu-C18 diacid])SIANT-NH2)	2.4	–
H(Aib)HGS(αMePhe)TSDVSKK(O2OC-O2OC-γE-C18diacid)13LDSRAAQD(αMePhe)VQ(Aib)IANT-amide [Peptide 406]	–	% Relative Potency Ratio (Table 10): 31.6
CC[C@H](C)[C@H](NC(=O)C(C)(C)NC(=O)[C@H](CCCCNC(=O)COCCOCCNC(=O)COCCOCCNC(=O)CC[C@H](NC(=O)CC[C@H](NC(=O)CCCCCCCCCCCCCCCCC(=O)O)C(=O)O)C(=O)O)NC(=O)[C@@H](NC(=O)[C@](C)(Cc1ccccc1)NC(=O)[C@H](CC(=O)O)NC(=O)[C@H](CCC(N)=O)NC(=O)[C@H](C)NC(=O)[C@H](C)NC(=O)[C@H](CCCNC(=N)N)NC(=O)[C@H](CO)NC(=O)[C@H](CC(=O)O)NC(=O)[C@H](CC(C)C)NC(=O)[C@](C)(Cc1ccccc1)NC(=O)[C@H](CCCCN)NC(=O)[C@H](CO)NC(=O)[C@@H](NC(=O)[C@H](CC(=O)O)NC(=O)[C@H](CO)NC(=O)[C@@H](NC(=O)[C@](C)(Cc1ccccc1)NC(=O)[C@H](CO)NC(=O)CNC(=O)[C@H](Cc1c[nH]cn1)NC(=O)C(C)(C)NC(=O)[C@@H](N)Cc1c[nH]cn1)[C@@H](C)O)C(C)C)C(C)C)C(=O)N[C@@H](C)C(=O)N[C@@H](CC(N)=O)C(=O)N[C@H](C(=O)NCC(=O)NCC(N)=O)[C@@H](C)O [Peptide 373] (H-H[Aib]HGS[αMeF]TSDVSK[αMeF]LDSRAAQD[αMeF]VK([AEEA-AEEA-γGlu-γGlu-C18 diacid])[Aib]IANTGG-NH2; N-terminus assumed)	7.2	–
CC[C@H](C)[C@H](NC(=O)[C@H](Cc1c[nH]c2ccccc12)NC(=O)[C@H](CCCCNC(=O)COCCOCCNC(=O)COCCOCCNC(=O)CC[C@H](NC(=O)CCCCCCCCCCCCCCCCCCC(=O)O)C(=O)O)NC(=O)[C@@H](NC(=O)[C@H](Cc1ccccc1)NC(=O)[C@H](CC(=O)O)NC(=O)[C@H](CCC(N)=O)NC(=O)[C@H](C)NC(=O)[C@H](C)NC(=O)[C@H](CCC(N)=O)NC(=O)[C@H](CO)NC(=O)[C@H](CC(=O)O)NC(=O)[C@H](CC(C)C)NC(=O)[C@](C)(Cc1ccccc1)NC(=O)[C@H](CCCCN)NC(=O)[C@H](CO)NC(=O)[C@@H](NC(=O)[C@H](CC(=O)O)NC(=O)[C@H](CO)NC(=O)[C@@H](NC(=O)[C@](C)(Cc1ccccc1)NC(=O)[C@H](CO)NC(=O)CNC(=O)[C@H](Cc1c[nH]cn1)NC(=O)C(C)(C)NC(=O)[C@@H](N)Cc1c[nH]cn1)[C@@H](C)O)C(C)C)C(C)C)C(=O)N[C@@H](C)C(=O)N[C@@H](CC(N)=O)C(=O)N[C@H](C(N)=O)[C@@H](C)O [Peptide 356] (H-H[Aib]HGS[αMeF]TSDVSK[αMeF]LDSQAAQDFVK([AEEA-AEEA-γGlu-C20 diacid])WIANT-NH2)	2.1	–
CC[C@H](C)[C@H](NC(=O)[C@H](Cc1c[nH]c2ccccc12)NC(=O)[C@H](CCCCNC(=O)COCCOCCNC(=O)COCCOCCNC(=O)CC[C@H](NC(=O)CCCCCCCCCCCCCCCCC(=O)O)C(=O)O)NC(=O)[C@@H](NC(=O)[C@H](Cc1ccccc1)NC(=O)[C@H](CC(=O)O)NC(=O)[C@H](CCC(N)=O)NC(=O)[C@H](C)NC(=O)[C@H](C)NC(=O)[C@H](CCC(N)=O)NC(=O)[C@H](CO)NC(=O)[C@H](CC(=O)O)NC(=O)[C@H](CC(C)C)NC(=O)[C@](C)(Cc1ccccc1)NC(=O)[C@H](CCCCN)NC(=O)[C@H](CO)NC(=O)[C@@H](NC(=O)[C@H](CC(=O)O)NC(=O)[C@H](CO)NC(=O)[C@@H](NC(=O)[C@](C)(Cc1ccccc1)NC(=O)[C@H](CO)NC(=O)CNC(=O)[C@H](CCC(N)=O)NC(=O)C(C)(C)NC(=O)[C@@H](N)Cc1c[nH]cn1)[C@@H](C)O)C(C)C)C(C)C)C(=O)N[C@@H](C)C(=O)N[C@@H](CC(N)=O)C(=O)N[C@H](C(N)=O)[C@@H](C)O [Peptide 348] (H-H[Aib]QGS[αMeF]TSDVSK[αMeF]LDSQAAQDFVK([AEEA-AEEA-γGlu-C18 diacid])WIANT-NH2; N-terminus assumed)	116.0	–
CC(C)C[C@H](NC(=O)[C@H](CCC(=O)O)NC(=O)[C@H](CC(C)C)NC(=O)[C@](C)(Cc1ccccc1)NC(=O)[C@H](CCCCN)NC(=O)[C@H](CO)NC(=O)[C@@H](NC(=O)[C@H](CC(=O)O)NC(=O)[C@H](CO)NC(=O)[C@@H](NC(=O)[C@H](Cc1ccccc1)NC(=O)[C@@H](NC(=O)CNC(=O)[C@H](CCC(N)=O)NC(=O)C(C)(C)NC(=O)[C@@H](N)Cc1c[nH]cn1)[C@@H](C)O)[C@@H](C)O)C(C)C)C(=O)N[C@@H](CCCCNC(=O)COCCOCCNC(=O)COCCOCCNC(=O)CC[C@H](NC(=O)CCCCCCCCCCCCCCCCC(=O)O)C(=O)O)C(=O)N[C@@H](CCCNC(=N)N)C(=O)N[C@@H](C)C(=O)N[C@@H](CCC(N)=O)C(=O)N[C@@H](CC(=O)O)C(=O)N[C@@H](Cc1ccccc1)C(=O)N[C@H](C(=O)N[C@@H](CCCNC(=N)N)C(=O)N[C@@H](Cc1c[nH]c2ccccc12)C(=O)N[C@@H](CC(C)C)C(=O)N[C@@H](CC(C)C)C(=O)NC(C)(C)C(=O)N[C@H](C(=O)N[C@@H](CCC(=O)O)C(=O)O)[C@@H](C)O)C(C)C [Peptide 169] (H-H[Aib]QGTFTSDVSK[αMeF]LELK([AEEA-AEEA-γGlu-C18 diacid])RAQDFVRWLL[Aib]TE-OH; N-terminus assumed)	–	% Relative Potency Ratio (Table 6): 13.2
CC[C@H](C)[C@H](NC(=O)[C@H](Cc1c[nH]c2ccccc12)NC(=O)[C@H](CCCCNC(=O)CC[C@H](NC(=O)CCCCCCCCCCCCCCCCCCC(=O)O)C(=O)O)NC(=O)[C@@H](NC(=O)[C@H](Cc1ccccc1)NC(=O)[C@H](CC(=O)O)NC(=O)[C@H](CCC(N)=O)NC(=O)[C@H](C)NC(=O)[C@H](C)NC(=O)[C@H](CCC(N)=O)NC(=O)[C@H](CO)NC(=O)[C@H](CC(=O)O)NC(=O)[C@H](CC(C)C)NC(=O)[C@](C)(Cc1ccccc1)NC(=O)[C@H](CCCCN)NC(=O)[C@H](CO)NC(=O)[C@@H](NC(=O)[C@H](CC(=O)O)NC(=O)[C@H](CO)NC(=O)[C@@H](NC(=O)[C@H](Cc1ccccc1)NC(=O)[C@@H](NC(=O)CNC(=O)[C@H](Cc1c[nH]cn1)NC(=O)C(C)(C)NC(=O)[C@@H](N)Cc1c[nH]cn1)[C@@H](C)O)[C@@H](C)O)C(C)C)C(C)C)C(=O)N[C@@H](C)C(=O)N[C@@H](CC(N)=O)C(=O)N[C@H](C(N)=O)[C@@H](C)O [Peptide 347]	0.2	–
